Experiments:
Type in all cases: in vivo
Setaria viridis = assay: Greenhouse pre-emergence (PRE) herbicidal test on SETVI
Excerpt: (§1) The culture containers used were plastic pots containing loamy sand with approximately 3.0% of humus as substrate. The seeds of the test plants were sown separately for each species.
For the pre-emergence treatment, the active compounds, suspended or emulsified in water, were applied directly after sowing by means of finely distributing nozzles. The containers were irrigated gently to promote germination and growth and subsequently covered with transparent plastic hoods until the plants had rooted. This cover caused uniform germination of the test plants unless this was adversely affected by the active compounds.
(§2) Depending on the species, the plants were kept at 10-25° C. and 20-35° C., respectively.
(§3) The test period extended over 2 to 4 weeks. During this time, the plants were tended and their response to the individual treatments was evaluated.
(§4) Evaluation was carried out using a scale from 0 to 100. 100 means no emergence of the plants, or complete destruction of at least the above-ground parts, and 0 means no damage or normal course of growth. A good herbicidal activity is given at values of at least 70, and very good herbicidal activity is given at values of at least 85.
(§5) If not stated differently, the respective components A and B, and if appropriate, C were formulated as a 5% by weight strength emulsion concentrate and, with addition of the amount of solvent system, introduced into the spray liquor used for applying the active compound.
(§6) As indicated application was either post emergent (POST) at the respective growth stage (GS) of the weed (BBCH code), or pre-emergent (PRE). […]

Alopecurus myosuroides = assay: Greenhouse pre-emergence (PRE) herbicidal test on ALOMY; settings: Alopecurus myosuroides, pre-emergence, 480 h
In short: (§7)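 Seeds were sown per species in loamy sand with ~3.0% humus, treated pre-emergence and kept at 10-25° C or 20-35° C depending on species. Damage was scored at 20 days after treatment on a 0-100 scale (100 = no emergence or complete destruction of above-ground parts, 0 = no damage).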

Digitaria sanguinalis = assay: Greenhouse post-emergence (POST) herbicidal test on DIGSA; settings: Digitaria sanguinalis, post-emergence, 480 h, read-out: solo application % activity
In short: (§8)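 Weeds grown in loamy sand (~3.0% humus) to 3–15 cm were sprayed post-emergence with compounds suspended or emulsified in water, formulated as 5% emulsion concentrates. Plants were kept at 10-25 °C or 20-35 °C by species. Damage was scored 0–100 (100 = complete destruction) at 20 DAT.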

Abutilon theophrasti [1] = assay: Greenhouse pre-emergence (PRE) herbicidal test on ABUTH; settings: Abutilon theophrasti, pre-emergence, 480 h, read-out: solo application % activity
In short: as §7

Abutilon theophrasti [2] = assay: Greenhouse post-emergence (POST) herbicidal test on ABUTH; settings: Abutilon theophrasti, post-emergence, 480 h, read-out: solo application % activity
In short: as §8

Ambrosia artemisiifolia = assay: Greenhouse pre-emergence (PRE) herbicidal test on AMBEL
Euphorbia heterophylla [3] = assay: Greenhouse post-emergence (POST) herbicidal test on EPHHL; settings: Euphorbia heterophylla, post-emergence, 480 h, read-out: solo application % activity
Method: as §1
(§9) For the post-emergence treatment, the test plants were grown to a plant height of from 3 to 15 cm, depending on the plant habit, and only then treated with the active compounds which had been suspended or emulsified in water. To this end, the test plants were either sown directly, and grown in the same containers, or they were first grown separately as seedlings and transplanted into the test containers a few days prior to treatment.
as §2, §3, §4, §5, §6

Commelina benghalensis = assay: Greenhouse pre-emergence (PRE) herbicidal test on COMBE
In short: as §7

Ipomoea hederacea = assay: Greenhouse post-emergence (POST) herbicidal test on IPOHE
Method: as §1, §9, §2, §3, §4, §5
As indicated application was either post emergent (POST) at the respective growth stage (GS) of the weed (BBCH code), or pre-emergent (PRE).
Assessment was 20 days after treatment (DAT).

Echinochloa crus-galli [4] = assay: Greenhouse post-emergence (POST) herbicidal test on ECHCG; settings: Echinochloa crus-galli, post-emergence, 480 h, read-out: solo application % activity
In short: as §8

Euphorbia heterophylla [5] = assay: Greenhouse pre-emergence (PRE) herbicidal test on EPHHL; settings: Euphorbia heterophylla, pre-emergence, 480 h
In short: as §7

Geranium pusillum = assay: Greenhouse post-emergence (POST) herbicidal test on GERPU; settings: Geranium pusillum, post-emergence, 480 h, read-out: solo application % activity
In short: as §8

Amaranthus retroflexus [6] = assay: Greenhouse post-emergence (POST) herbicidal test on AMARE; settings: Amaranthus retroflexus, post-emergence, 480 h, read-out: solo application % activity
Method: as §1, §9, §2, §3, §4, §5, §6

Lolium multiflorum = assay: Greenhouse pre-emergence (PRE) herbicidal test on LOLMU
In short: as §7

Amaranthus retroflexus [7] = assay: Greenhouse pre-emergence (PRE) herbicidal test on AMARE
Method: as §1
(§10) The containers were irrigated gently to promote germination and growth and subsequently covered with transparent plastic hoods until the plants had rooted.
as §2, §3, §4, §6

Echinochloa crus-galli [8] = assay: Greenhouse pre-emergence (PRE) herbicidal test on ECHCG; settings: PRE, ECHCG, use rate 6.25 gai/ha, 20 DAT
Method: as §1, §10, §2, §3, §4, §6

[9] = read-out: solo application % activity
[10] = Ambrosia artemisiifolia, pre-emergence, 480 h, read-out: solo application % activity
[11] = Commelina benghalensis, pre-emergence, 480 h, read-out: solo application % activity
[12] = Ambrosia artemisiifolia, pre-emergence, 480 h, read-out: % activity
[13] = Commelina benghalensis, pre-emergence, 480 h, read-out: % activity
[14] = Lolium multiflorum, pre-emergence, 480 h, read-out: % activity

Q: Which results are given for `CC(C)N1C(=O)c2ccccc2NS1(=O)=O` [Bentazone]?
A: inhibition at 240 g/ha (Setaria viridis; Setaria viridis, pre-emergence, 480 h, PRE, SETVI, use rate 240 gai/ha, 20 DAT, read-out: solo application % activity): 10%; inhibition at 480 g/ha (Setaria viridis; Setaria viridis, pre-emergence, 480 h, PRE, SETVI, use rate 480 gai/ha, 20 DAT, read-out: solo application % activity): 0%; inhibition at 240 g/ha (Alopecurus myosuroides; PRE, ALOMY, use rate 240 gai/ha, 20 DAT, read-out: solo application % activity): 15%; inhibition at 240 g/ha (Digitaria sanguinalis; POST, DIGSA, use rate 240 gai/ha, 20 DAT): 0%; inhibition at 240 g/ha (Abutilon theophrasti [1]; PRE, ABUTH, use rate 240 gai/ha, 20 DAT): 30%; inhibition at 480 g/ha (Abutilon theophrasti [2]; POST, ABUTH, use rate 480 gai/ha, 20 DAT): 10%; inhibition at 240 g/ha (Ambrosia artemisiifolia; Ambrosia artemisiifolia, pre-emergence, 480 h, PRE, AMBEL, use rate 240 gai/ha, 20 DAT, read-out: solo application % activity): 0%; inhibition at 480 g/ha (Ambrosia artemisiifolia; Ambrosia artemisiifolia, pre-emergence, 480 h, PRE, AMBEL, use rate 480 gai/ha, 20 DAT, read-out: solo application % activity): 0%; inhibition at 240 g/ha (Euphorbia heterophylla [3]; POST, EPHHL, use rate 240 gai/ha, 20 DAT): 0%; inhibition at 480 g/ha (Euphorbia heterophylla [3]; POST, EPHHL, use rate 480 gai/ha, 20 DAT): 0%; inhibition at 240 g/ha (Commelina benghalensis; Commelina benghalensis, pre-emergence, 480 h, PRE, COMBE, use rate 240 gai/ha, 20 DAT, read-out: solo application % activity): 0%; inhibition at 240 g/ha (Ipomoea hederacea; Ipomoea hederacea, post-emergence, 480 h, POST, IPOHE, use rate 240 gai/ha, 20 DAT, read-out: solo application % activity): 0%; inhibition at 240 g/ha (Echinochloa crus-galli [4]; POST, ECHCG, use rate 240 gai/ha, 20 DAT): 10%; inhibition at 480 g/ha (Echinochloa crus-galli [4]; POST, ECHCG, use rate 480 gai/ha, 20 DAT): 30%; inhibition at 240 g/ha (Euphorbia heterophylla [5]; PRE, EPHHL, use rate 240 gai/ha, 20 DAT, read-out: solo application % activity): 5%; inhibition at 480 g/ha (Euphorbia heterophylla [5]; PRE, EPHHL, use rate 480 gai/ha, 20 DAT, read-out: solo application % activity): 5%

Q: `CCSC(C)CC1CC(=O)C(/C(CC)=N/OC/C=C/Cl)=C(O)C1` (centres unmarked) [Clethodim, clethodim] was tested. Which inhibition at 5 g/ha (Setaria viridis; Setaria viridis, pre-emergence, 480 h, read-out: solo application % activity) did it give?
A: 25%

Q: What about the inhibition at 5 g/ha (Alopecurus myosuroides; [9]) of the same compound?
A: 60%

Q: What about the inhibition at 10 g/ha (Alopecurus myosuroides; [9]) of the same compound?
A: 75%

Q: What about the inhibition at 5 g/ha (Geranium pusillum) of the same compound?
A: 0%

Q: What about the inhibition at 10 g/ha (Geranium pusillum) of the same compound?
A: 0%

Q: And the inhibition at 10 g/ha (Digitaria sanguinalis)?
A: 80%

Q: What about the inhibition at 5 g/ha (Abutilon theophrasti [1]) of the same compound?
A: 0%

Q: And the inhibition at 10 g/ha (Abutilon theophrasti [2])?
A: 0%

Q: What about the inhibition at 5 g/ha (Ambrosia artemisiifolia; [10]) of the same compound?
A: 0%

Q: What about the inhibition at 10 g/ha (Ambrosia artemisiifolia; [10]) of the same compound?
A: 0%

Q: What about the inhibition at 5 g/ha (Euphorbia heterophylla [3]) of the same compound?
A: 0%

Q: And the inhibition at 10 g/ha (Euphorbia heterophylla [3])?
A: 0%

Q: And the inhibition at 5 g/ha (Commelina benghalensis; [11])?
A: 0%

Q: And the inhibition at 10 g/ha (Commelina benghalensis; [11])?
A: 0%

Q: What about the inhibition at 5 g/ha (Ipomoea hederacea; Ipomoea hederacea, post-emergence, 480 h, read-out: solo application % activity) of the same compound?
A: 0%

Q: And the inhibition at 5 g/ha (Amaranthus retroflexus [6])?
A: 0%

Q: What about the inhibition at 10 g/ha (Amaranthus retroflexus [6]) of the same compound?
A: 0%

Q: And the inhibition at 5 g/ha (Lolium multiflorum; Lolium multiflorum, pre-emergence, 480 h, read-out: solo application % activity)?
A: 60%

Q: What about the inhibition at 5 g/ha (Echinochloa crus-galli [4]) of the same compound?
A: 80%

Q: And the inhibition at 5 g/ha (Euphorbia heterophylla [5]; [9])?
A: 0%

Q: What about the inhibition at 10 g/ha (Euphorbia heterophylla [5]; [9]) of the same compound?
A: 0%

Q: How did the “% activity” value (Ambrosia artemisiifolia; AMBEL PRE, use rate 1.25 gai/ha) turn out when `COc1c(Cl)ccc(-c2nc(C(=O)OCc3ccccc3)c(Cl)c(N)c2F)c1F` [Florpyrauxifen-Benzyl, florpyrauxifen-benzyl] was run?
A: 30%

Q: And the “% activity” value (Ambrosia artemisiifolia; AMBEL PRE, use rate 5 gai/ha)?
A: 45%

Q: And the “% activity” value (Commelina benghalensis; COMBE PRE, use rate 5 gai/ha)?
A: 45%

Q: And the “% activity” value (Amaranthus retroflexus [7]; AMARE PRE, use rate 5 gai/ha)?
A: 0%

Q: For `CCOC(=O)C(C)Oc1ccc(Oc2cnc3cc(Cl)ccc3n2)cc1` (centres unmarked) [Quizalofop-Ethyl, quizalofop-ethyl], which pest or weed control at 2 g/ha (Alopecurus myosuroides; read-out: % activity) is on record?
A: 0%

Q: What about the pest or weed control at 2 g/ha (Ambrosia artemisiifolia; [12]) of the same compound?
A: 0%

Q: And the pest or weed control at 4 g/ha (Ambrosia artemisiifolia; [12])?
A: 0%

Q: And the pest or weed control at 2 g/ha (Commelina benghalensis; [13])?
A: 0%

Q: What about the pest or weed control at 4 g/ha (Commelina benghalensis; [13]) of the same compound?
A: 0%

Q: What about the pest or weed control at 2 g/ha (Lolium multiflorum; [14]) of the same compound?
A: 0%

Q: And the pest or weed control at 4 g/ha (Lolium multiflorum; [14])?
A: 0%

Q: And the pest or weed control at 4 g/ha (Euphorbia heterophylla [5]; read-out: % activity)?
A: 5%

Q: And the pest or weed control at 4 g/ha (Amaranthus retroflexus [7]; Amaranthus retroflexus, pre-emergence, 480 h, read-out: % activity)?
A: 0%

Q: Which results are given for `Cc1c(C(=O)c2cnn(C)c2O)ccc(S(C)(=O)=O)c1C1=NOCC1` [Topramezone, topramezone]?
A: % activity (Setaria viridis; PRE, SETVI, use rate 3.125 gai/ha, 20 DAT): 0%; % activity (Ambrosia artemisiifolia; PRE, AMBEL, use rate 6.25 gai/ha, 20 DAT): 0%; % activity (Ipomoea hederacea; POST, IPOHE, use rate 3.125 gai/ha, 20 DAT): 15%; % activity (Ipomoea hederacea; POST, IPOHE, use rate 6.25 gai/ha, 20 DAT): 35%; % activity (Lolium multiflorum; PRE, LOLMU, use rate 3.125 gai/ha, 20 DAT): 0%; % activity (Echinochloa crus-galli [8]): 10%

— patent US20260007133A1, “HERBICIDAL COMPOSITION COMPRISING AZINE COMPOUNDS” (BASF SE, priority 2022, published 2026)
